Reference: patent US20210371351A1, “MIXTURES COMPRISING AT LEAST TWO DIFFERENT NITRIFICATION INHIBITORS SELECTED FROM 2-(3,4-DIMETHYL-1H-PYRAZOL-1-YL)SUCCINIC ACID (DMPSA), 3,4-DIMETHYL PYRAZOLIUM GLYCOLATE (DMPG) AND OTHER COMPOUNDS” (BASF SE, priority 2017, published 2021)

Tested on: nitrification
Experiment: Example 3: soil column trial (soil Limburgerhof) with ammonium sulfate, DMPP, DMPSA or DMPP+DMPSA; leaching at 5° C., incubation 10 d or 20 d at 15° C.; NH4-N/NO3-N, % inhibition of NO3-N formation (Böhland), Colby
Conditions: 0.05% DMPP, 0.45% DMPSA
Source text: The effect on NH4^+ retention and NH4^+ to NO3^− ratios in the soil after fertilization of ammonium sulfate with the addition of DMPP, DMPSA or a combination of DMPP and DMPSA was investigated in column trials simulating climatic conditions of spring time in central Europe. Soil Limburgerhof (pH(CaCl2) 6.8, texture: 73% sand; 24% silt, 3% clay) was filled dry into a glass column with an inner width of 4 cm. At the bottom 0.4 g cotton wool was placed above which a frit (Co. Robu, pore size 1) was placed above which 100 g of 2 mm sieved soil Limburgerhof was layered. The soil height in the column was about 7 cm. Before fertilization the soil was brought to about 60% of its water holding capacity (WHC) be adding 14.4 mL of deionized water. Per column 10 mg NH4—N as ammonium sulfate was fertilized or not (control) together or not with 0.05% DMPP (DMPP obtained from BASF SE), 0.45% DMPSA (DMPSA used as free acid obtained from BASF SE) and 0.05% DMPP plus 0.45% DMPSA (% of nitrification inhibitor w/w of NH4—N). Every treatment was replicated three times.
After fertilization, 50 mL demineralized water was carefully and slowly placed on top of each column which equals about 31 mm precipitation. After 24 h the eluate was collected and by sucking off the soil to bring it back to about 60% of its WHC. All handlings including soil preparation, fertilization and the temperature of the water for both wetting the soil and the artificial precipitation up to the collection of the eluate 24 h after fertilization was performed at 5° C.
Thereafter, the columns were incubated for 10 d or 20 d at constantly 15° C. in an incubator. After 7 d and 14 d, water was added by weight where needed to bring the soils uniformly to 60% WHC. After 10 d or 20 d, the soil was removed from the columns and extracted with 1% (w/w) K2SO4 solution by shaking for 2 h at room temperature. The filtrated extract was then analyzed for NH4^+ and NO3 colorimetrical by an autoanalyzer.
To calculate the inhibition of nitrate formation by the nitrification inhibitors during the incubation, the above-mentioned Böhland equation was used. To examine synergistic effects of the combination of DMPP+DMPSA the formula by Colby (Colby, S.R., “Calculating synergistic and antagonistic responses of herbicide Combinations”, Weeds, 15, pp. 20-22, 1967) was used. To determine background levels of NH4+ to NO3−, every treatment was also extracted immediately after fertilization and after leaching prior to the further incubation at 15° C. for 10 d or 20 d.

[1] = 10 days of incubation at 15° C.
[2] = 20 days of incubation at 15° C.

2-(3,4-dimethyl-1H-pyrazol-1-yl)succinic acid and/or 2-(4,5-dimethyl-1H-pyrazol-1-yl)succinic acid [DMPSA]
During incubation: % inhibition of NO3—N formation by NI acc. to Böhland equation (1973) (MV) [1]: 14.2% | Net NI effect % NH4 from fertilized NH4 (MV) [1]: 6.88% | Ratio NH4—N/NO3—N (MV) [1]: 0.53 | Soil mg/100 g NH4—N (MV) [1]: 3.16 mg/100 g | Soil mg/100 g NO3—N (MV) [1]: 6.30 mg/100 g | During incubation: % inhibition of NO3—N formation by NI acc. to Böhland equation (1973) (MV) [2]: 4.8% | Net NI effect % NH4 from fertilized NH4 (MV) [2]: 1.79% | Ratio NH4—N/NO3—N (MV) [2]: 0.02 | Soil mg/100 g NH4—N (MV) [2]: 0.19 mg/100 g | Soil mg/100 g NO3—N (MV) [2]: 9.60 mg/100 g
